Test results from ChEMBL document CHEMBL1129917, “Structure-based design of novel, dipeptide ligands targeting the pp60Src SH2 domain” (Bioorg Med Chem Lett, 1997).

molecular target: Proto-oncogene tyrosine-protein kinase Src (Homo sapiens, UniProt P12931); experiment: Inhibition of [125I]-labeled phosphopeptide binding to a Src protein tyrosine kinase SH2 domain.
Sequence (P12931 2-536 limits assumed): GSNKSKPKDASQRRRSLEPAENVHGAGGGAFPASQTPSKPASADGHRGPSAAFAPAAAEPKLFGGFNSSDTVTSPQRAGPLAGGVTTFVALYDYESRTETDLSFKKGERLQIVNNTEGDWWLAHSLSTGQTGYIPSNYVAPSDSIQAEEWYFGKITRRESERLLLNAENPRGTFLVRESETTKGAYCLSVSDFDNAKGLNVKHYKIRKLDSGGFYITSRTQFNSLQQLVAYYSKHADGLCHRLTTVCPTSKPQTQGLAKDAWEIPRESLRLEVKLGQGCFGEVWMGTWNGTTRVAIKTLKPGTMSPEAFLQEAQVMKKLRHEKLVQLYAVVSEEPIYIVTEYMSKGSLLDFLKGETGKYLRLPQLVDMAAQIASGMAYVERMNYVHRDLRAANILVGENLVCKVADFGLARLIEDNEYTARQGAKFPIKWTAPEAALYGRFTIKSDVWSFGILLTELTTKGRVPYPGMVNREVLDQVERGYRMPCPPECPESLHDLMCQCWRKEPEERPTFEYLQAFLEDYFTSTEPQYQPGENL

Going from `CC(=O)N[C@@H](Cc1ccc(OP(=O)(O)O)cc1)C(=O)N[C@@H](CCC(=O)O)C(=O)N[C@@H](CCC(N)=O)Cc1cccc2ccccc12` to `CC(=O)N[C@@H](Cc1ccc(OP(=O)(O)O)cc1)C(=O)N[C@@H](CCC(=O)O)C(=O)NCCc1cccc2ccccc12`, the IC50 rises from 2.3 µM to 4.8 µM (2.1-fold). The first is the more potent here.

First: CC(=O)N[C@@H](Cc1ccc(OP(=O)(O)O)cc1)C(=O)N[C@@H](Cc1ccc(OP(=O)(O)O)cc1)C(=O)N[C@@H](Cc1ccc(OP(=O)(O)O)cc1)C(N)=O
Second: CC(=O)N[C@@H](Cc1ccc(OP(=O)(O)O)cc1)C(=O)N[C@@H](Cc1ccc(OP(=O)(O)O)cc1)C(=O)NCCCc1ccccc1
The IC50 of the first is 16-fold lower: 0.24 µM for the first, 3.9 µM for the second. The first is the more potent here.

Going from `CC(=O)N[C@@H](Cc1ccc(OP(=O)(O)O)cc1)C(=O)N[C@@H](C)C(=O)NCCCc1ccccc1` to `CC(=O)N[C@@H](Cc1ccc(OP(=O)(O)O)cc1)C(=O)N[C@H](C(=O)NCCCc1ccccc1)C(C)C`, the IC50 rises from 15 µM to roughly 30 µM (2-fold). The first is the more potent here.

Going from `CC(=O)N[C@@H](Cc1ccc(OP(=O)(O)O)cc1)C(=O)N[C@@H](CCC(=O)O)C(=O)NCCc1ccccc1` to `CCc1ccccc1CCNC(=O)[C@H](CCC(=O)O)NC(=O)[C@H](Cc1ccc(OP(=O)(O)O)cc1)NC(C)=O`, the IC50 falls from 9.1 µM to 4.6 µM (2-fold). The second is the more potent here.

`CC(=O)N[C@@H](Cc1ccc(OP(=O)(O)O)cc1)C(=O)N[C@@H](CCC(=O)O)C(=O)NCCC1=CC=CC2CCCCC12` (stereo partly specified) and `CC(=O)N[C@@H](Cc1ccc(OP(=O)(O)O)cc1)C(=O)N[C@@H](CCC(=O)O)C(=O)N(C)CCCc1ccccc1` are within 1.5-fold of each other in IC50: 3.2 µM for the first, 3.5 µM for the second.

First: CCC[C@H](NC(=O)[C@H](Cc1ccc(OP(=O)(O)O)cc1)NC(C)=O)C(=O)NCCCc1ccccc1
Second: CC(=O)N[C@@H](Cc1ccc(OP(=O)(O)O)cc1)C(=O)NCC(=O)NCCCc1ccccc1
The IC50 of the first is 3.8-fold lower: 12 µM for the first, roughly 46 µM for the second.

First: CC(=O)N[C@@H](Cc1ccc(OP(=O)(O)O)cc1)C(=O)N[C@@H](CCC(=O)O)C(=O)N(CCCC(=O)O)CCCc1ccccc1
Second: CCCC(NC(=O)[C@H](Cc1ccc(OP(=O)(O)O)cc1)NC(C)=O)C(=O)N(CCCC(=O)O)CCCc1ccccc1 (stereo partly specified)
The IC50 of the first is 2.1-fold lower: 2 µM for the first, 4.3 µM for the second.

Going from `CC(=O)N[C@@H](Cc1ccc(OP(=O)(O)O)cc1)C(=O)NCC(=O)N(CCCC(=O)O)CCCc1ccccc1` to `CC(=O)N[C@@H](Cc1ccc(OP(=O)(O)O)cc1)C(=O)N[C@@H](C)C(=O)N(CCCC(=O)O)CCCc1ccccc1`, the IC50 falls from 14 µM to 6.4 µM (2.2-fold). The second is the more potent here.
